From patent EP4775571A1, “LPAR1 ANTAGONIST AND USE THEREOF” (Haisco Pharmaceutical Group Co., Ltd., priority 2023, dated 2025)

Columns and labels:
LPAR1 = biological target: T1, LPAR1 (Homo sapiens, UniProt Q92633); test: Cell calcium flux assay (antagonist mode, LPA at EC80, FLIPR); assay type: cell-based; settings: CHO-LPA1 cells, calcium flux, grades; read-out: LPAR1 IC50
T1 construct: expressed in transfected cells; host or cells: CHO (CHO-LPA1 cells)
Description: • 1) The test compound was diluted to a 400X stock solution with DMSO in a 384-well plate. • 2) 1 µl of compound solution from step 1 was transferred into 39 ul of assay buffer to prepare a 10X working solution in a 384-well plate using a Bravo automated liquid handling platform. • 3) CHO-LPA1 cells were cultured in F12 medium (10% FBS). • 4) When cells reached 80% confluence, the cells were dissociated using 0.25% trypsin-EDTA. • 5) Cell density was determined and the cells were diluted to 4x10e5/ml using F12 (10% FBS). • 6) 30 µl of the cell suspension was dispensed into a 384-well plate (corning 3764#) using a multidrop automated dispenser, resulting in 12,000 cells per well. The plate was incubated at 37°C with 5% CO2 for 18-20 hours. • 7) The medium was replaced with 25 uL of serum-free medium and incubated overnight. • 8) 10 ul of 3.5X loading dye was added to each well of the cell plate. The plate was incubated in the dark at 37°C with 5% CO2 for 0.5-1 hours. • 9) After incubation, 5 µl of the 10X working solution from step 2 was transferred to the cell plate. • 10) The cell plate was incubated in the dark at 25°C for 15 minutes, and then the calcium signals were read. • 11) A 5X agonist (LPA) working solution in 1X HBSS+20 mM HEPES+0.1% BSA was prepared in a 384-well assay plate (greiner 784075#), with at least 20 µl per well. The agonist concentration used in this assay was determined based on the dose-response curve from a prior agonist mode experiment, with the EC80 value serving as the final agonist concentration. • 12) Data were read and saved using FLIPR at room temperature with the specified settings. • 13) The signal values were plotted against compound concentrations, and the curve fitting was performed and the IC50 values were calculated using nonlinear regression analysis in GraphPad Prism software.
IC50 values are represented by grades A, B, C, and D, where A represents 0 < IC50 ≤ 10 nM, B represents 10 nM < IC50 ≤ 50 nM, C represents 50 nM < IC50 ≤ 100 nM, and D represents IC50 > 100 nM. Table 1 Antagonistic activity of the compounds of the present invention against LPAR1

[1] = Pharmacokinetic test in mice; assay type: in vivo, C57 mice; settings: for pharmacokinetic characteristics in mice: conclusion in words; for Vd: read-out: Vdss
Description: 2.1 Experimental animals: Male C57 mice, 20-25 g, 6 mice/compound, purchased from Chengdu Ddossy Experimental Animals Co., Ltd.
2.2 Experimental design: On the day of the experiment, the C57 mice were randomly grouped according to their body weights. The animals were fasted with water available for 12-14 h one day before the administration, and were fed 4 h after the administration. Table 2. Administration information
Before and after administration, 0.06 mL of blood was taken from the orbit under isoflurane anaesthesia and placed in an EDTAK2 centrifuge tube. The tube was centrifuged at 5000 rpm at 4°C for 10 min, and plasma was collected. The blood collection time points for the intravenous administration group and oral gavage administration group were: 0 min, 5 min, 15 min, 30 min, 1 h, 2 h, 4 h, 6 h, 8 h, and 24 h. Before analysis and detection, all samples were stored at -80°C, and the samples were quantitatively analysed by LC-MS/MS. Table 3. Pharmacokinetic parameters of test compounds in plasma of mice

[2] = tested on: bleomycin (BLM)-induced idiopathic pulmonary fibrosis (IPF); test: Mouse model of bleomycin (BLM)-induced idiopathic pulmonary fibrosis (IPF); assay type: in vivo, C57BL/6j mice
Source text: • 1) Screening and grouping: A total of 48 nine-week-old male C57BL/6j mice (experimental animals) were used in this study. Prior to the start of the experiment, the animals were divided into a sham-operated group (Group 1, 8 mice) and a model group (40 mice) based on their body weights. One week after model establishment, the model group animals were further divided into […] subgroups (Groups 2-6, n = 8 per group) based on their body weights. • 2) Animal model establishment: On day 1 of the experiment, the animals were anesthetised with Zoletil (50 mg/kg) and Xylazine (10 mg/kg). Mice in the model group received an intratracheal (i.t.) injection of bleomycin at a dose of 0.66 mg/kg (1 U/kg) in a volume of 50 µL on day 1. Mice in the sham-operated group (Group 1, […]) received an intratracheal injection of normal saline in a volume of 50 µL. • 3) Mode of administration of test compounds: Starting from day 7 of the experiment, the animals were treated as follows. Group 3: compound 22 was administered by oral gavage at a dose of 1 mg/kg at a volume of 10 mL/kg body weight, twice daily. Group 4: compound 22 was administered by oral gavage at a dose of 3 mg/kg at a volume of 10 mL/kg body weight, twice daily. Group 5: BMS-986278 was administered by oral gavage at a dose of 10 mg/kg at a volume of 10 mL/kg body weight, twice daily. Group 6: nintedanib was administered by oral gavage at a dose of 60 mg/kg at a volume of 10 mL/kg body weight, once daily. Sham-operated group (Group 1) and model group (Group 2): the vehicle was administered by oral gavage at a volume of 10 mL/kg body weight, twice daily. • 4) Test indicators: Lung tissues were collected at the study endpoint for pathological evaluation.

[3] = Pharmacokinetic test in rats; assay type: in vivo, SD rats; settings: for pharmacokinetic characteristics in rats: conclusion in words; for Vd: read-out: Vdss
Description: 3.1. Experimental animals: Male SD rats, about 220 g, 6-8 weeks old, 6 rats/compound, purchased from Chengdu Ddossy Experimental Animals Co., Ltd.
3.2. Experimental design: On the day of the experiment, the SD rats were randomly grouped according to their body weights. The animals were fasted with water available for 12-14 h one day before the administration, and were fed 4 h after the administration. Table 4. Administration information
Before and after administration, 0.15 mL of blood was taken from the orbit under isoflurane anaesthesia and placed in an EDTAK2 centrifuge tube. The tube was centrifuged at 5000 rpm at 4°C for 10 min, and plasma was collected. Before analysis and detection, all samples were stored at -80°C, and the samples were quantitatively analysed by LC-MS/MS. Table 5. Pharmacokinetic parameters of test compound in plasma of rats

Caco2 permeability test = assay type: in vitro ADME; settings: human, Caco-2 monolayer, 2 hours at 37°C
Description: In the experiment, a monolayer of Caco-2 cells was used, and incubated in triplicate in a 96-well Transwell plate. A transport buffer solution (HBSS, 10 mM HEPES, pH 7.4 ± 0.05) containing the compound of the present invention (2 µM) or the control compound digoxin (10 µM), nadolol (2 µM) or metoprolol (2 µM) was added to the administration end hole on the apical side or basal side. A DMSO-containing transport buffer solution was added to the corresponding receiving end hole. After incubation for 2 hours at 37°C ± 1°C, the cell plate was removed, and an appropriate amount of samples was taken from both the apical side and basal side and transferred to a new 96-well plate. Subsequently, acetonitrile containing an internal standard was added to precipitate the protein. The samples were analysed using LC MS/MS, and the concentrations of the compound of the present invention and the control compound were determined. Concentration data were used to calculate apparent permeability coefficients for transport from the apical side to the basal side, and from the basal side to the apical side of the cell monolayer, and thus to calculate the efflux ratio. The integrity of the cell monolayer after 2 hours of incubation was evaluated by leakage of Lucifer Yellow.

[4] = mouse, iv, mice, i.v. (1 mg/kg), plasma
[5] = mouse, po, mice, i.g. (3 mg/kg), plasma
[6] = 1 mg/kg oral gavage twice daily for 14 consecutive days
[7] = 3 mg/kg oral gavage twice daily for 14 consecutive days
[8] = 3 mg/kg oral gavage twice daily for 14 consecutive days, lung tissue at study endpoint
[9] = rat, iv, rats, i.v. (1 mg/kg), plasma
[10] = rat, po, rats, i.g. (3 mg/kg), plasma

T1 sequence (Q92633 whole entry): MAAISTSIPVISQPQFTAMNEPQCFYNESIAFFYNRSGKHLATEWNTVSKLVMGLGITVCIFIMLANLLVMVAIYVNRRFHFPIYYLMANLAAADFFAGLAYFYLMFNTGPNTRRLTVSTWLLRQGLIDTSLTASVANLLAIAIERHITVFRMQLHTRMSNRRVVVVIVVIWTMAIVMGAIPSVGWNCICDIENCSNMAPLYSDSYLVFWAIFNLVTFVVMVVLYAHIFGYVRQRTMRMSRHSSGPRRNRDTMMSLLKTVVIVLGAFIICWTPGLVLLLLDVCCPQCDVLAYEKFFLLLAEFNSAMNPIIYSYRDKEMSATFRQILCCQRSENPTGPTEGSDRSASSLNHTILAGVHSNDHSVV

## Cc1nc(-c2nnn(C)c2CNC(=O)OC2CC(=C(F)F)C2)ccc1O[C@H]1CCC[C@H](C(=O)O)C1 (stereo partly shown) [Compound 22]
LPAR1
  IC50: < 10 nM
[1]
  pharmacokinetic characteristics in mice: excellent pharmacokinetic characteristics
[1]; mice, i.g. (3 mg/kg), plasma
  C0 or Cmax: 1788 ± 180 ng/mL
[1]; mice, i.v. (1 mg/kg), plasma
  C0 or Cmax: 1537 ± 290 ng/mL
[1]; [4]
  AUC(0-t): 1570 ± 74 ng·h/mL
  clearance: 10.4 ± 0.55 mL/min/kg
  Vd: 2.77 ± 0.16 L/kg
[1]; mouse, plasma, po, mice, i.g. (3 mg/kg)
  bioavailability: ≥ 98%
[1]; [5]
  AUC(0-t): 5610 ± 1410 ng·h/mL
[2]; [6]
  Modified Ashcroft score compared with the vehicle-treated model group: significantly reduced
  fibrotic area in lung tissues compared with the vehicle-treated model group: significantly reduced
[2]; [7]
  Modified Ashcroft score compared with the vehicle-treated model group: significantly reduced
  fibrotic area in lung tissues compared with the vehicle-treated model group: significantly reduced
[2]; [8]
  Modified Ashcroft score: less than 4
  fibrotic area: less than 20%
[2]; dose of 1 mg/kg
  efficacy relative to BMS-986278 (10 mg/kg) and nintedanib (60 mg/kg): comparable to that of BMS-986278 (10 mg/kg) and nintedanib (60 mg/kg)
[2]; dose of 3 mg/kg
  efficacy relative to BMS-986278 and nintedanib: superior efficacy to both BMS-986278 and nintedanib
[3]
  pharmacokinetic characteristics in rats: good pharmacokinetic characteristics
[3]; [9]
  AUC(0-t): 1790 ± 321 ng·h/mL
  clearance: 9.45 ± 1.7 mL/min/kg
  Vd: 1.21 ± 0.17 L/kg
[3]; rat, plasma, po, rats, i.g. (3 mg/kg)
  bioavailability: ≥ 98%
[3]; [10]
  AUC(0-t): 6710 ± 652 ng·h/mL
[3]; rats, i.g. (3 mg/kg), plasma
  C0 or Cmax: 1630 ± 162 ng/mL
[3]; rats, i.v. (1 mg/kg), plasma
  C0 or Cmax: 2428 ± 221 ng/mL

## C=C1CC(OC(=O)NCc2c(-c3ccc(O[C@H]4CCC[C@H](C(=O)O)C4)c(C)n3)nnn2C)C1 [Compound 26]
LPAR1
  IC50: < 10 nM
[1]
  pharmacokinetic characteristics in mice: excellent pharmacokinetic characteristics
[1]; mice, i.g. (3 mg/kg), plasma
  C0 or Cmax: 659 ± 55 ng/mL
[1]; mice, i.v. (1 mg/kg), plasma
  C0 or Cmax: 2268 ± 193 ng/mL
[1]; [4]
  AUC(0-t): 1580 ± 50 ng·h/mL
  clearance: 10.3 ± 0.52 mL/min/kg
  Vd: 2.83 ± 0.53 L/kg
[1]; [5]
  AUC(0-t): 2290 ± 102 ng·h/mL
Caco2 permeability test; pH 7.4
  efflux ratio at 2 h, 2 µM: 6.79
Caco2 permeability test; pH 7.4, read-out: Average apparent permeability coefficient A-B
  Papp A→B at 2 h, 2 µM: 4.31 ×10⁻⁶ cm/s
Caco2 permeability test; pH 7.4, read-out: Average apparent permeability coefficient B-A
  Papp B→A at 2 h, 2 µM: 29.2 ×10⁻⁶ cm/s
[3]
  pharmacokinetic characteristics in rats: good pharmacokinetic characteristics
[3]; [9]
  AUC(0-t): 1870 ± 246 ng·h/mL
  clearance: 8.91 ± 1.2 mL/min/kg
  Vd: 1.21 ± 0.5 L/kg
[3]; [10]
  AUC(0-t): 2880 ± 913 ng·h/mL
[3]; rats, i.g. (3 mg/kg), plasma
  C0 or Cmax: 1144 ± 145 ng/mL
[3]; rats, i.v. (1 mg/kg), plasma
  C0 or Cmax: 2745 ± 354 ng/mL
